Measured values as given in patent US20090324581A1, “HETEROARYLAMIDE LOWER CARBOXYLIC ACID DERIVATIVE” (Daiichi Sankyo company Limited, priority 2006, published 2009).
Where a name gives a salt, the structure may show the parent alone.

What was measured:
[1] = tested on: lymphocytes in peripheral blood; test: Decrease in peripheral blood lymphocyte count of mice after administration of each compound; type: in vivo; conditions: four hours after administration, peripheral blood lymphocyte count vs solvent group; for T/C(%) (3 mg/kg): 3 mg/kg peroral; for T/C(%) (10 mg/kg): 10 mg/kg peroral
Description: 2. In Vivo Evaluation of Test Substances (Decrease in Peripheral Blood Lymphocyte Count of Mice after Administration of Each Compound):
There has already been reported that lymphocytes in peripheral blood of mice decrease after administration of an S1P receptor agonist [SCIENCE, 296, 346-349 (2002)]. According to the evaluation method disclosed in the document, test compounds were evaluated.
Four hours after peroral administration, blood (0.5 mL) was collected from each mouse through the posterior vena cava under anesthesia with ether by use of EDTA as an anti-coagulant. The number of lymphocytes in peripheral blood was determined by means of a general hematological tester ADVIA 120 (Bayer Medical). The pharmacological action of each test drug was evaluated as T/C (%) ratio, which is a ratio of average peripheral blood lymphocyte count of a test drug-administered group to that of the solvent-administered group (control group).
(§1) T/C(%)=(average peripheral blood lymphocyte count of a test drug-administered group)/(average peripheral blood lymphocyte count of the solvent-administered group)×100

human S1P1 (EDG-1) = target: T1, human S1P1 (EDG-1) (Homo sapiens, UniProt P21453); test: Intracellular calcium flux assay (agonist activity against S1P1 (EDG-1) receptor); type: cell-based; conditions: CHO cells expressing Gqi5 and human S1P1 (EDG-1), intracellular calcium change
T1 construct: expressed in transfected cells; host or cells: CHO-K1 cells stably expressing HA-Gqi5
T1 sequence (P21453 whole entry): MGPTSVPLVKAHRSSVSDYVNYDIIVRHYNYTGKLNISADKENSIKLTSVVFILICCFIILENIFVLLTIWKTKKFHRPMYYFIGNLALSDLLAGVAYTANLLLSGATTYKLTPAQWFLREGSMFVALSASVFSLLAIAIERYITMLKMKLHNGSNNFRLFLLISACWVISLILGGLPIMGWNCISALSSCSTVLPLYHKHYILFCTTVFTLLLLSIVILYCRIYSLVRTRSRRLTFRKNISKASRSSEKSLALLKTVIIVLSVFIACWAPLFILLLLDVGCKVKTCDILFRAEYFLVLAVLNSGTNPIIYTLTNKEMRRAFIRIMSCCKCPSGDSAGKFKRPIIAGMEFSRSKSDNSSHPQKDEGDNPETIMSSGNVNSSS
From the text: The HA-Gqi5 expression plasmid, which had been produced in (2) above, was integrated into CHO-K1 cells by use of a Fugene 6 reagent (product of Roche Diagnostics K.K.), and cells of interest were selected by use of hygromycin. A CHO cell expressing HA-Gqi5 was selected through western blotting employing an anti-HA antibody, and the selected cells were cloned twice.
By use of a human S1P1 (EDG-1) cDNA clone (open biosystems, cDNA collection #4071217) as a template, human S1P1 (EDG-1) DNA was produced through PCR. This PCR product was integrated into pUC118. By means of a site-directed mutagenesis kit (product of STRATAGENE), a plasmid into which DNA having a target sequence (The Journal of Biological Chemistry Vol. 265, No. 16, 9308-9313, 1990) had been integrated was produced.
A human S1P1 (EDG-1) gene (The Journal of Biological Chemistry Vol. 265, No. 16, 9308-9313, 1990) integrated into pUC118 was digested by use of restriction enzymes, and the cut fragment was purified. The fragment was ligated with an expression plasmid pcDNA3.1/mycHisA (product of Invitrogen). The ligation mixture was integrated into E. Coli DH5α, and a positive clone was selected, whereby a S1P1 (EDG-1) expression plasmid was produced.
A S1P1 (EDG-1) expression plasmid was integrated into the CHO cells expressing HA-Gqi5, which had been produced in (3) above, by use of a Fugene 6 reagent (product of Roche Diagnostics K.K.). […] The selected cells were cloned twice.
CHO cells expressing Gqi5 protein, to which human S1P1 (EDG-1) had been introduced and which had been produced in (6) above, were seeded on a 96-well black plate with a transparent bottom surface (2.5×10^4 cell/well) and cultured overnight. The culture was washed once with a serum-free medium, and an assay buffer (calcium assay kit, product of Molecular Devices, 100 μL) containing 2.5 mM probenicid and 0.25% fatty acid-free BSA was added to the washed cells. The mixture was allowed to react at 37° C. for one hour under […] CO2. Separately, each test compound was diluted so as to attain a concentration five times the final test concentration. The diluted liquid (25 μL) was added to each well, and change in intracellular calcium concentration was measured by means of a FLEXstation II (product of Molecular Devices). The change was determined as the difference between the minimum intracellular calcium level and the peak (maximum) value thereof. A sigmoid curve was obtained from the measurements, and an EC50 value was calculated from the curve so as to evaluate agonist activity against an S1P1 (EDG-1) receptor.

[2] = tested on: lymphocytes in peripheral blood; test: Decrease in peripheral blood lymphocyte count of rats after administration of each compound; type: in vivo; conditions: rats (female Lewis), four hours after administration, peripheral blood lymphocyte count vs solvent group; for T/C(%) (3 mg/kg): 3 mg/kg peroral; for T/C(%) (10 mg/kg): 10 mg/kg peroral
Description: 3. In Vivo Evaluation of Test Substances (Decrease in Peripheral Blood Lymphocyte Count of Rats after Administration of Each Compound):
The effect of administration of an S1P receptor agonist on decrease in peripheral blood lymphocyte counts of rats (female Lewis) was evaluated.
Four hours after peroral administration, blood (0.5 mL) was collected from each rat through the cervical vein under anesthesia with ether by use of EDTA as an anti-coagulant. The number of lymphocytes in peripheral blood and blood cell fractions were determined by means of a general hematological tester ADVIA 120 (Bayer Medical). The action of each test drug on reducing peripheral blood lymphocyte count was evaluated as T/C (%) ratio at the time of blood collection, which is a ratio of average peripheral blood lymphocyte count of a test drug-administered group to that of the solvent-administered group (control group).
as §1

blood lymphocytes = conditions: phosphorylated in the living body, acts as S1P receptor agonist; cited from earlier work
[3] = tested on: production of cytokines such as IL-2; conditions: in vitro; cited from earlier work
[4] = clinically tested in transplant and multiple sclerosis; cited from earlier work

Row | Compound | EC50 (human S1P1 (EDG-1); Table 2) | EC50 (human S1P1 (EDG-1); Table 4) | T/C(%) (3 mg/kg) [1] | T/C(%) (10 mg/kg) [1] | T/C(%) (3 mg/kg) [2] | T/C(%) (10 mg/kg) [2] | further results
1 | O=C(O)CCNCC(=O)N1CCc2cc(OCc3cc(-c4ccccc4)c(C(F)(F)F)s3)ccc21 [Example 29, 3-[N-[2-Oxo-2-[5-[(4-phenyl-5-trifluoromethyl-2-thienyl)methoxy]indolin-1-yl]ethyl]amino]propionic acid] | 2.4 nM |  | 15.5% | 13.9% |  |  | 
2 | CN(CCC(=O)O)CC(=O)N1CCc2cc(OCc3cc(-c4ccccc4)c(C(F)(F)F)s3)ccc21 [Example 30, 3-[N-Methyl-N-[2-oxo-2-[5-[(4-phenyl-5-trifluoromethyl-2-thienyl)methoxy]indolin-1-yl]ethyl]amino]propionic acid] | 2.9 nM |  | 21.7% | 11.1% |  |  | 
3 | CN[C@H](CC(=O)O)C(=O)N1CCc2cc(OCc3ccc(C4CCCCC4)cc3C(F)(F)F)ccc21 [Example 43, 4-[5-[[4-(Cyclohexyl)-2-(trifluoromethyl)phenyl]methoxy]indolin-1-yl]-(3R)-(methylamino)-4-oxobutyric acid] |  | 8.7 nM |  |  | 34.9% | 25.7% | 
4 | CC(C)c1ccc(COc2ccc3c(c2)CCN3C(=O)CNCCC(=O)O)cc1OC(F)(F)F [Example 97, 3-[N-[2-[5-(4-Isopropyl-3-trifluoromethoxybenzyloxy)indolin-1-yl]-2-oxoethyl]amino]propionic acid hydrochloride] |  | 4.7 nM |  |  | 22.2% | 17.9% | 
5 | O=C(O)[C@@H]1CCCN(CC(=O)N2CCc3cc(OCc4cc(-c5ccccc5)c(C(F)(F)F)s4)ccc32)C1 [Example 119, 1-[2-Oxo-2-[5-[(4-phenyl-5-trifluoromethyl-2-thienyl)methoxy]indolin-1-yl]ethyl]piperidine-(3R)-carboxylic acid] |  | 6.2 nM |  |  | 28.7% | 20.7% | 
6 | CN[C@H](CC(=O)O)C(=O)N1CCc2c1ccc(OCc1ccc(C3CCCC3)c(C(F)(F)F)c1)c2C [Example 129, 4-[5-[(4-Cyclopentyl-3-trifluoromethylphenyl)methoxy]-4-methylindolin-1-yl]-(3R)—(N-methylamino)-4-oxobutyric acid] |  | 4.5 nM |  |  | 18.2% | 17.7% | 
7 | CCCCCCCCc1ccc(CCC(N)(CO)CO)cc1.Cl [FTY720, 2-amino-2-[2-(4-octylphenyl)ethyl]-1,3-propanediol hydrochloride] |  |  |  |  |  |  | reduction in blood lymphocytes (blood lymphocytes): induce reduction in blood lymphocytes; inhibitory action on production of cytokines such as IL-2 [3]: no inhibitory action; adverse side effect [4]: bradycardia is reported as an adverse side effect

Continued, in another order:

Row | EC50 (human S1P1 (EDG-1); Table 2) | EC50 (human S1P1 (EDG-1); Table 4) | Compound | T/C(%) (3 mg/kg) [1] | T/C(%) (10 mg/kg) [1] | T/C(%) (3 mg/kg) [2] | T/C(%) (10 mg/kg) [2] | further results
8 | 1.3 nM |  | N[C@H](CC(=O)O)C(=O)N1CCc2cc(OCc3cc(-c4ccccc4)c(C(F)(F)F)s3)ccc21 [Example 10, (R)-3-Amino-4-oxo-4-[5-[(4-phenyl-5-trifluoromethyl-2-thienyl)methoxy]indolin-1-yl]butyric acid] | 21.6% | 16.3% |  |  | 
9 | 4.4 nM |  | N[C@H](CC(=O)O)C(=O)N1CCc2cc(OCc3ccc(-c4ccccc4)c(C(F)(F)F)c3)ccc21 [Example 14, (R)-3-Amino-4-oxo-4-[5-[(2-trifluoromethyl-4-biphenyl)methoxy]indolin-1-yl]butyric acid] | 17.0% | 11.1% |  |  | 
10 | 6.3 nM |  | O=C(O)CCNCC(=O)N1CCc2cc(OCc3ccc(-c4ccccc4)c(C(F)(F)F)c3)ccc21 [Example 31, 3-[N-[2-Oxo-2-[5-[(2-trifluoromethyl-4-biphenyl)methoxy]indolin-1-yl]ethyl]amino]propionic acid] | 30.8% | 19.8% |  |  | 
